Assay results as given in ChEMBL document CHEMBL3797178, “Synthesis, antimycobacterial and antibacterial activity of 1-(6-amino-3,5-difluoropyridin-2-yl)fluoroquinolone derivatives containing an oxime functional moiety” (2016).
≈ marks a conversion by molar mass, not a printed value.

What was measured:
Format in all cases: functional
Staphylococcus aureus [1] = assay: Antibacterial activity against methicillin-sensitive Staphylococcus aureus 14-4 after 18 to 24 hrs by CLSI M100-S11 method
Enterococcus faecalis [2] = assay: Antibacterial activity against Enterococcus faecalis 14-2 after 18 to 24 hrs by CLSI M100-S11 method
Klebsiella pneumoniae [3] = assay: Antibacterial activity against Klebsiella pneumoniae 14-4 after 18 to 24 hrs by CLSI M100-S11 method
Enterococcus faecalis [4] = assay: Antibacterial activity against Enterococcus faecalis 14-3 after 18 to 24 hrs by CLSI M100-S11 method
Escherichia coli [5] = assay: Antibacterial activity against Escherichia coli 14-1 after 18 to 24 hrs by CLSI M100-S11 method
Enterococcus faecalis [6] = assay: Antibacterial activity against Enterococcus faecalis 14-1 after 18 to 24 hrs by CLSI M100-S11 method
Klebsiella pneumoniae [7] = assay: Antibacterial activity against Klebsiella pneumoniae 14-3 after 18 to 24 hrs by CLSI M100-S11 method
[8] = tested on: Staphylococcus epidermidis; assay: Antibacterial activity against methicillin-sensitive Staphylococcus epidermidis 14-6 after 18 to 24 hrs by CLSI M100-S11 method
Escherichia coli [9] = assay: Antibacterial activity against Escherichia coli ATCC 25922 after 18 to 24 hrs by CLSI M100-S11 method
[10] = tested on: Mycobacterium tuberculosis; assay: Antimycobacterial activity against Mycobacterium tuberculosis H37Rv ATCC 27294 after 3 days by microplate Alamar Blue assay; conditions: H37Rv ATCC 27294, 72 h
[11] = tested on: Staphylococcus epidermidis; assay: Antibacterial activity against methicillin-resistant Staphylococcus epidermidis 14-39 after 18 to 24 hrs by CLSI M100-S11 method
Escherichia coli [12] = assay: Antibacterial activity against extended-spectrum beta-lactamase-producing Escherichia coli 14-1 after 18 to 24 hrs by CLSI M100-S11 method
Staphylococcus aureus [13] = assay: Antibacterial activity against Staphylococcus aureus CMCC 26003 after 18 to 24 hrs by CLSI M100-S11 method
Pseudomonas aeruginosa [14] = assay: Antibacterial activity against Pseudomonas aeruginosa 14-9 after 18 to 24 hrs by CLSI M100-S11 method
Klebsiella pneumoniae [15] = assay: Antibacterial activity against extended-spectrum beta-lactamase-producing Klebsiella pneumoniae 14-17 after 18 to 24 hrs by CLSI M100-S11 method
Klebsiella pneumoniae [16] = assay: Antibacterial activity against Klebsiella pneumoniae 14-2 after 18 to 24 hrs by CLSI M100-S11 method
[17] = tested on: Staphylococcus epidermidis; assay: Antibacterial activity against methicillin-resistant Staphylococcus epidermidis 14-37 after 18 to 24 hrs by CLSI M100-S11 method
Staphylococcus aureus [18] = assay: Antibacterial activity against methicillin-resistant Staphylococcus aureus 14-5 after 18 to 24 hrs by CLSI M100-S11 method
Staphylococcus aureus [19] = assay: Antibacterial activity against methicillin-sensitive Staphylococcus aureus 14-3 after 18 to 24 hrs by CLSI M100-S11 method
Pseudomonas aeruginosa [20] = assay: Antibacterial activity against Pseudomonas aeruginosa ATCC 27853 after 18 to 24 hrs by CLSI M100-S11 method
[21] = tested on: Staphylococcus epidermidis; assay: Antibacterial activity against methicillin-sensitive Staphylococcus epidermidis 14-4 after 18 to 24 hrs by CLSI M100-S11 method
[22] = tested on: Staphylococcus epidermidis; assay: Antibacterial activity against methicillin-resistant Staphylococcus epidermidis 14-22 after 18 to 24 hrs by CLSI M100-S11 method
Enterococcus faecium [23] = assay: Antibacterial activity against Enterococcus faecium 14-1 after 18 to 24 hrs by CLSI M100-S11 method
Enterococcus faecium [24] = assay: Antibacterial activity against Enterococcus faecium 14-2 after 18 to 24 hrs by CLSI M100-S11 method
Pseudomonas aeruginosa [25] = assay: Antibacterial activity against Pseudomonas aeruginosa 14-16 after 18 to 24 hrs by CLSI M100-S11 method
Klebsiella pneumoniae [26] = assay: Antibacterial activity against Klebsiella pneumoniae 14-1 after 18 to 24 hrs by CLSI M100-S11 method
Klebsiella pneumoniae [27] = assay: Antibacterial activity against extended-spectrum beta-lactamase-producing Klebsiella pneumoniae 14-18 after 18 to 24 hrs by CLSI M100-S11 method
Pseudomonas aeruginosa [28] = assay: Antibacterial activity against Pseudomonas aeruginosa 14-14 after 18 to 24 hrs by CLSI M100-S11 method
Escherichia coli [29] = assay: Antibacterial activity against extended-spectrum beta-lactamase-producing Escherichia coli 14-2 after 18 to 24 hrs by CLSI M100-S11 method
[30] = tested on: Staphylococcus epidermidis; assay: Antibacterial activity against methicillin-sensitive Staphylococcus epidermidis 14-2 after 18 to 24 hrs by CLSI M100-S11 method
Streptococcus pneumoniae = assay: Antibacterial activity against Streptococcus pneumoniae ATCC 19615 after 18 to 24 hrs by CLSI M100-S11 method
Escherichia coli [31] = assay: Antibacterial activity against Escherichia coli 14-2 after 18 to 24 hrs by CLSI M100-S11 method
Klebsiella pneumoniae [32] = assay: Antibacterial activity against extended-spectrum beta-lactamase-producing Klebsiella pneumoniae 14-19 after 18 to 24 hrs by CLSI M100-S11 method
Pseudomonas aeruginosa [33] = assay: Antibacterial activity against Pseudomonas aeruginosa 14-19 after 18 to 24 hrs by CLSI M100-S11 method
Pseudomonas aeruginosa [34] = assay: Antibacterial activity against Pseudomonas aeruginosa 14-15 after 18 to 24 hrs by CLSI M100-S11 method
Staphylococcus aureus [35] = assay: Antibacterial activity against methicillin-resistant Staphylococcus aureus 14-4 after 18 to 24 hrs by CLSI M100-S11 method
Staphylococcus aureus [36] = assay: Antibacterial activity against methicillin-sensitive Staphylococcus aureus 14-2 after 18 to 24 hrs by CLSI M100-S11 method

| Structure (SMILES) | MIC (Staphylococcus aureus [1]) [µg/mL] | MIC (Enterococcus faecalis [2]) [µg/mL] | MIC (Klebsiella pneumoniae [3]) [µg/mL] | MIC (Enterococcus faecalis [4]) [µg/mL] | MIC (Escherichia coli [5]) [µg/mL] | MIC (Enterococcus faecalis [6]) [µg/mL] | MIC (Klebsiella pneumoniae [7]) [µg/mL] | MIC [8] [µg/mL] | MIC (Escherichia coli [9]) [µg/mL] | MIC [10] [µg/mL] | MIC [11] [µg/mL] | MIC (Escherichia coli [12]) [µg/mL] | MIC (Staphylococcus aureus [13]) [µg/mL] | MIC (Pseudomonas aeruginosa [14]) [µg/mL] | MIC (Klebsiella pneumoniae [15]) [µg/mL] | MIC (Klebsiella pneumoniae [16]) [µg/mL] | MIC [17] [µg/mL] | MIC (Staphylococcus aureus [18]) [µg/mL] | MIC (Staphylococcus aureus [19]) [µg/mL] | MIC (Pseudomonas aeruginosa [20]) [µg/mL] | also measured |
| --- | --- | --- | --- | --- | --- | --- | --- | --- | --- | --- | --- | --- | --- | --- | --- | --- | --- | --- | --- | --- | --- |
| CCO/N=C1\CN(c2nc3c(cc2F)c(=O)c(C(=O)O)cn3-c2nc(N)c(F)cc2F)CC1CN (stereo unspecified) | 0.5 (≈ 1.02 µM) | 16 (≈ 32.6 µM) | 128 (≈ 260 µM) | 32 (≈ 65.1 µM) | 64 (≈ 130 µM) | 16 (≈ 32.6 µM) | 128 (≈ 260 µM) | 32 (≈ 65.1 µM) | 0.5 (≈ 1.02 µM) | 6.56 (≈ 13.3 µM) | 32 (≈ 65.1 µM) | 8 (≈ 16.3 µM) | 0.06 (≈ 0.122 µM) | 16 (≈ 32.6 µM) | 64 (≈ 130 µM) | 128 (≈ 260 µM) | 64 (≈ 130 µM) | 64 (≈ 130 µM) | 0.5 (≈ 1.02 µM) | 4 (≈ 8.14 µM) | MIC [21]: 32 µg/mL (≈ 65.1 µM); MIC [22]: 32 µg/mL (≈ 65.1 µM); MIC (Enterococcus faecium [23]): 128 µg/mL (≈ 260 µM); MIC (Enterococcus faecium [24]): 8 µg/mL (≈ 16.3 µM); MIC (Pseudomonas aeruginosa [25]): 16 µg/mL (≈ 32.6 µM); MIC (Klebsiella pneumoniae [26]): 64 µg/mL (≈ 130 µM); MIC (Klebsiella pneumoniae [27]): 32 µg/mL (≈ 65.1 µM); MIC (Pseudomonas aeruginosa [28]): 16 µg/mL (≈ 32.6 µM); MIC (Escherichia coli [29]): 128 µg/mL (≈ 260 µM); MIC [30]: 64 µg/mL (≈ 130 µM); MIC (Streptococcus pneumoniae): 16 µg/mL (≈ 32.6 µM); MIC (Escherichia coli [31]): 64 µg/mL (≈ 130 µM); MIC (Klebsiella pneumoniae [32]): 128 µg/mL (≈ 260 µM); MIC (Pseudomonas aeruginosa [33]): 32 µg/mL (≈ 65.1 µM); MIC (Pseudomonas aeruginosa [34]): 16 µg/mL (≈ 32.6 µM); MIC (Staphylococcus aureus [35]): 64 µg/mL (≈ 130 µM); MIC (Staphylococcus aureus [36]): 0.25 µg/mL (≈ 0.509 µM) |
| CO/N=C1\CN(c2nc3c(cc2F)c(=O)c(C(=O)O)cn3-c2nc(N)c(F)cc2F)[C@H]1CN | 4 (≈ 8.63 µM) | > 128 | > 128 | > 128 | > 128 | > 128 | > 128 | 64 (≈ 138 µM) | 2 (≈ 4.32 µM) | > 32 | > 128 | 64 (≈ 138 µM) | 4 (≈ 8.63 µM) | 32 (≈ 69.1 µM) | > 128 | > 128 | > 128 | > 128 | 8 (≈ 17.3 µM) | 16 (≈ 34.5 µM) | MIC [21]: 64 µg/mL (≈ 138 µM); MIC [22]: > 128 µg/mL; MIC (Enterococcus faecium [23]): > 128 µg/mL; MIC (Enterococcus faecium [24]): 128 µg/mL (≈ 276 µM); MIC (Pseudomonas aeruginosa [25]): 32 µg/mL (≈ 69.1 µM); MIC (Klebsiella pneumoniae [26]): > 128 µg/mL; MIC (Klebsiella pneumoniae [27]): 64 µg/mL (≈ 138 µM); MIC (Pseudomonas aeruginosa [28]): 64 µg/mL (≈ 138 µM); MIC (Escherichia coli [29]): > 128 µg/mL; MIC [30]: > 128 µg/mL; MIC (Streptococcus pneumoniae): 64 µg/mL (≈ 138 µM); MIC (Escherichia coli [31]): > 128 µg/mL; MIC (Klebsiella pneumoniae [32]): > 128 µg/mL; MIC (Pseudomonas aeruginosa [33]): 32 µg/mL (≈ 69.1 µM); MIC (Pseudomonas aeruginosa [34]): 64 µg/mL (≈ 138 µM); MIC (Staphylococcus aureus [35]): > 128 µg/mL; MIC (Staphylococcus aureus [36]): 8 µg/mL (≈ 17.3 µM) |
| CCO/N=C1\CN(c2nc3c(cc2F)c(=O)c(C(=O)O)cn3-c2nc(N)c(F)cc2F)[C@@H]1CN | 32 (≈ 67 µM) | > 128 | > 128 | > 128 | > 128 | > 128 | > 128 | > 128 | 16 (≈ 33.5 µM) | > 32 | > 132 | > 128 | 16 (≈ 33.5 µM) | 128 (≈ 268 µM) | > 128 | > 128 | > 128 | > 128 | 32 (≈ 67 µM) | 128 (≈ 268 µM) | MIC [21]: > 128 µg/mL; MIC [22]: > 128 µg/mL; MIC (Enterococcus faecium [23]): > 128 µg/mL; MIC (Enterococcus faecium [24]): 128 µg/mL (≈ 268 µM); MIC (Pseudomonas aeruginosa [25]): 128 µg/mL (≈ 268 µM); MIC (Klebsiella pneumoniae [26]): > 128 µg/mL; MIC (Klebsiella pneumoniae [27]): > 128 µg/mL; MIC (Pseudomonas aeruginosa [28]): 128 µg/mL (≈ 268 µM); MIC (Escherichia coli [29]): > 128 µg/mL; MIC [30]: > 128 µg/mL; MIC (Streptococcus pneumoniae): 64 µg/mL (≈ 134 µM); MIC (Escherichia coli [31]): > 128 µg/mL; MIC (Klebsiella pneumoniae [32]): > 128 µg/mL; MIC (Pseudomonas aeruginosa [33]): 128 µg/mL (≈ 268 µM); MIC (Pseudomonas aeruginosa [34]): 128 µg/mL (≈ 268 µM); MIC (Staphylococcus aureus [35]): > 128 µg/mL; MIC (Staphylococcus aureus [36]): 32 µg/mL (≈ 67 µM) |
